The results in this text go back to US11814375B2, “Heterocyclic compounds” (Hoffmann-La Roche Inc., priority 2019, dated 2023).

This test addresses T1, MAGL (Homo sapiens, UniProt Q99685).
T1 sequence (Q99685 1-303): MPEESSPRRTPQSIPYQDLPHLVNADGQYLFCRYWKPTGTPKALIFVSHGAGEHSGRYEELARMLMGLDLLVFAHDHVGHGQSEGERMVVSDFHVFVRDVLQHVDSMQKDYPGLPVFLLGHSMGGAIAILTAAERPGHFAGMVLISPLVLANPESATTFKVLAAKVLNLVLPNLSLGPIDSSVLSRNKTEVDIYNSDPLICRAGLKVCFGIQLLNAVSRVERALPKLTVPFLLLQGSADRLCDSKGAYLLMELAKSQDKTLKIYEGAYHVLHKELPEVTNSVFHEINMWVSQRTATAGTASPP
In words: 2-AG assay: MAGL inhibitory activity by hydrolysis of 2-arachidonoylglycerol to arachidonic acid, followed by mass spectrometry. Format: biochemical. To be noted: 8 μM 2-arachidonoylglycerol, 15 min preincubation and 30 min reaction at RT, arachidonic acid/d8-arachidonic acid ratio by MS. As for the experimental part: Compounds of formula (I) were profiled for MAGL inhibitory activity by determining the enzymatic activity by following the hydrolysis of the natural substrate 2-arachidonoylglycerol (2-AG) resulting in arachidonic acid, which can be followed by mass spectrometry. This assay is hereinafter abbreviated “2-AG assay”.
The 2-AG assay was carried out in 384 well assay plates (PP, Greiner Cat #784201) in a total volume of 20 μL. Compound dilutions were made in 100% DMSO (VWR Chemicals 23500.297) in a polypropylene plate in 3-fold dilution steps to give a final concentration range in the assay from 12.5 μM to […]. 0.25 μL compound dilutions (100% DMSO) were added to 9 μL MAGL in assay buffer (50 mM TRIS (GIBCO, 15567-027), 1 mM EDTA (Fluka, 03690-100 mL), 0.01% (v/v) Tween. After shaking, the plate was incubated for 15 min at RT. To start the reaction, 10 μL 2-arachidonoylglycerol in assay buffer was added. The final concentrations in the assay was […] and 8 μM 2-arachidonoylglyerol. After shaking and 30 min incubation at RT, the reaction was quenched by the addition of 40 μL of ACN containing 4 μM of d8-arachidonic acid. The amount of arachidonic acid was traced by an online SPE system (Agilent Rapidfire) coupled to a triple quadrupole mass spectrometer (Agilent 6460). A C18 SPE cartridge (G9205A) was used in an ACN/water liquid setup. The mass spectrometer was operated in negative electrospray mode following the mass transitions 303.1→259.1 for arachidonic acid and 311.1→267.0 for d8-arachidonic acid. The activity of the compounds was calculated based on the ratio of intensities [arachidonic acid/d8-arachidonic acid].
Consider `Cc1ccnnc1Oc1ccc(C2CN(C(=O)N3CC[C@@H]4OCC(=O)N[C@@H]4C3)C2)cc1` [Example 11, (+)-(4aR,8aS)-6-[3-[4-(4-Methylpyridazin-3-yl)oxyphenyl]azetidine-1-carbonyl]-4,4a,5,7,8,8a-hexahydropyrido[4,3-b][1,4]oxazin-3-one], for which the IC50 came to 42.9 nM. As to `Cc1csc(-c2ccc(C3CN(C(=O)N4CC[C@@H]5OCC(=O)N[C@@H]5C4)C3)cc2)n1` [Example 41, (4aR,8aS)-6-[3-[4-(4-Methyl-1,3-thiazol-2-yl)phenyl]azetidine-1-carbonyl]-4,4a,5,7,8,8a-hexahydropyrido[4,3-b][1,4]oxazin-3-one], the IC50 was 24.6 nM. For the compound `O=C1CO[C@H]2CCN(C(=O)N3CC(O)(c4ccc(Oc5ccccc5)cc4)C3)C[C@H]2N1` [Example 55, (4aR,8aS)-6-[3-Hydroxy-3-(4-phenoxyphenyl)azetidine-1-carbonyl]-4,4a,5,7,8,8a-hexahydropyrido[4,3-b][1,4]oxazin-3-one], the IC50 came out at 10.3 nM.

`Cn1nccc1-c1ccc(C2CN(C(=O)N3CC[C@@H]4OCC(=O)N[C@@H]4C3)C2)cc1` [Example 46, (4aR,8aS)-6-[3-[4-(2-Methylpyrazol-3-yl)phenyl]azetidine-1-carbonyl]-4,4a,5,7,8,8a-hexahydropyrido[4,3-b][1,4]oxazin-3-one]: the IC50 worked out at 17.5 nM. In the case of `O=C1CO[C@H]2CCN(C(=O)N3CC(c4ccc(Oc5cccnn5)cc4)C3)C[C@H]2N1` [Example 6, (+)-(4aR,8aS)-6-[3-(4-Pyridazin-3-yloxyphenyl)azetidine-1-carbonyl]-4,4a,5,7,8,8a-hexahydropyrido[4,3-b][1,4]oxazin-3-one], the IC50 is 133 nM.

Take `Cc1cccc(Oc2ccc(C3CN(C(=O)N4CC[C@@H]5OCC(=O)N[C@@H]5C4)C3)cc2)n1` [Example 26, (+)-(4aR,8aS)-6-[3-[4-[(6-Methyl-2-pyridyl)oxy]phenyl]azetidine-1-carbonyl]-4,4a,5,7,8,8a-hexahydropyrido[4,3-b][1,4]oxazin-3-one]: the IC50 worked out at 3.9 nM. Turning to `Cc1nc(C)c(-c2ccc(C3CN(C(=O)N4CC[C@@H]5OCC(=O)N[C@@H]5C4)C3)cc2)o1` [Example 34, (4aR,8aS)-6-[3-[4-(2,4-Dimethyloxazol-5-yl)phenyl]azetidine-1-carbonyl]-4,4a,5,7,8,8a-hexahydropyrido[4,3-b][1,4]oxazin-3-one], the half-maximal inhibitory concentration (IC50) was 22.9 nM. Regarding `O=C1CO[C@H]2CCN(C(=O)N3CC(c4ccc(Oc5cncc(Cl)c5)cc4)C3)C[C@H]2N1` [Example 9, (+)-(4aR,8aS)-6-[3-[4-[(5-Chloro-3-pyridyl)oxy]phenyl]azetidine-1-carbonyl]-4,4a,5,7,8,8a-hexahydropyrido[4,3-b][1,4]oxazin-3-one], the IC50 was 0.9 nM. As to `Cc1ccc(C)c(Oc2ccc(C3CN(C(=O)N4CC[C@@H]5OCC(=O)N[C@@H]5C4)C3)cc2)n1` [Example 30, (4aR,8aS)-6-[3-[4-[(3,6-Dimethyl-2-pyridyl)oxy]phenyl]azetidine-1-carbonyl]-4,4a,5,7,8,8a-hexahydropyrido[4,3-b][1,4]oxazin-3-one], the IC50 came out at 0.7 nM. For the compound `CS(=O)(=O)c1nccc(Oc2ccc(C3CN(C(=O)N4CC[C@@H]5OCC(=O)N[C@@H]5C4)C3)cc2)n1` [Example 29, (+)-(4aR,8aS)-6-[3-[4-(2-Methylsulfonylpyrimidin-4-yl)oxyphenyl]azetidine-1-carbonyl]-4,4a,5,7,8,8a-hexahydropyrido[4,3-b][1,4]oxazin-3-one], the IC50 amounted to 90.9 nM. The value for `O=C1CO[C@H]2CCN(C(=O)N3CC(c4ccc(Oc5ccc(Cl)cc5)nc4)C3)C[C@H]2N1` [Example 50, (4aR,8aS)-6-(3-(6-(4-Chlorophenoxy)pyridin-3-yl)azetidine-1-carbonyl)hexahydro-2H-pyrido[4,3-b][1,4]oxazin-3(4H)-one] was 4.3 nM; that for `O=C1CO[C@H]2CCN(C(=O)N3CC(c4ccc(Oc5ccc(F)cc5F)cc4)C3)C[C@H]2N1` [Example 17, (+)-(4aR,8aS)-6-[3-[4-(2,4-Difluorophenoxy)phenyl]azetidine-1-carbonyl]-4,4a,5,7,8,8a-hexahydropyrido[4,3-b][1,4]oxazin-3-one] was 0.1 nM; that for `O=C1CO[C@H]2CCN(C(=O)N3CC(c4ccc(Oc5cccc(Cl)c5)nc4)C3)C[C@H]2N1` [Example 53, (4aR,8aS)-6-(3-(6-(3-Chlorophenoxy)pyridin-3-yl)azetidine-1-carbonyl)hexahydro-2H-pyrido[4,3-b][1,4]oxazin-3(4H)-one] was 12.9 nM.

For the compound `O=C1CO[C@H]2CCN(C(=O)N3CC(c4ccc(Oc5ccc(Cl)cc5)cc4)C3)C[C@H]2N1` [Example 19, (+)-(4aR,8aS)-6-[3-[4-(4-Chlorophenoxy)phenyl]azetidine-1-carbonyl]-4,4a,5,7,8,8a-hexahydropyrido[4,3-b][1,4]oxazin-3-one], the IC50 stood at 0.01 nM.

Take `O=C1CO[C@H]2CCN(C(=O)N3CC(c4ccc(Oc5ccccc5F)cc4)C3)C[C@H]2N1` [Example 18, (+)-(4aR,8aS)-6-[3-[4-(2-fluorophenoxy)phenyl]azetidine-1-carbonyl]-4,4a,5,7,8,8a-hexahydropyrido[4,3-b][1,4]oxazin-3-one]: the concentration for half-maximal inhibition (IC50) came to 0.05 nM. Turning to `O=C1CO[C@H]2CCN(C(=O)N3CC(c4ccc(Oc5ccc(OC(F)(F)F)cc5)nc4)C3)C[C@H]2N1` [Example 49, (4aR,8aS)-6-(3-(6-(4-(Trifluoromethoxy)phenoxy)pyridin-3-yl)azetidine-1-carbonyl)hexahydro-2H-pyrido[4,3-b][1,4]oxazin-3(4H)-one], the IC50 stood at 2.4 nM.

For the compound `O=C1CO[C@H]2CCN(C(=O)N3CC(c4ccc(Oc5cccc(Cl)c5)cc4)C3)C[C@H]2N1` [Example 20, (+)-(4aR,8aS)-6-[3-[4-(3-Chlorophenoxy)phenyl]azetidine-1-carbonyl]-4,4a,5,7,8,8a-hexahydropyrido[4,3-b][1,4]oxazin-3-one], the IC50 is 0.06 nM. In the case of `O=C1CO[C@H]2CCN(C(=O)N3CC(c4ccc(Oc5ccc(F)cc5)nc4)C3)C[C@H]2N1` [Example 48, (4aR,8aS)-6-(3-(6-(4-Fluorophenoxy)pyridin-3-yl)azetidine-1-carbonyl)hexahydro-2H-pyrido[4,3-b][1,4]oxazin-3(4H)-one], the IC50 worked out at 31.5 nM. In the case of `Cc1cc(Oc2ccc(C3CN(C(=O)N4CC[C@@H]5OCC(=O)N[C@@H]5C4)C3)cc2)c(C)nn1` [Example 51, (4aR,8aS)-6-[3-[4-(3,6-Dimethylpyridazin-4-yl)oxyphenyl]azetidine-1-carbonyl]-4,4a,5,7,8,8a-hexahydropyrido[4,3-b][1,4]oxazin-3-one], the concentration for half-maximal inhibition (IC50) was found to be 124 nM. `O=C1CO[C@H]2CCN(C(=O)N3CC(c4ccc(Oc5cccc(F)c5)cc4)C3)C[C@H]2N1` [Example 15, (+)-(4aR,8aS)-6-[3-[4-(3-Fluorophenoxy)phenyl]azetidine-1-carbonyl]-4,4a,5,7,8,8a-hexahydropyrido[4,3-b][1,4]oxazin-3-one]: the IC50 is 0.11 nM. Turning to `O=C1CO[C@H]2CCN(C(=O)N3CC(c4ccc(Oc5cncc(F)c5)cc4)C3)C[C@H]2N1` [Example 8, (+)-(4aR,8aS)-6-[3-[4-[(5-Fluoro-3-pyridyl)oxy]phenyl]azetidine-1-carbonyl]-4,4a,5,7,8,8a-hexahydropyrido[4,3-b][1,4]oxazin-3-one], the IC50 is 4.3 nM. For `Cc1ccccc1Oc1ccc(C2CN(C(=O)N3CC[C@@H]4OCC(=O)N[C@@H]4C3)C2)cc1` [Example 21, (+)-(4aR,8aS)-6-[3-[4-(2-Methylphenoxy)phenyl]azetidine-1-carbonyl]-4,4a,5,7,8,8a-hexahydropyrido[4,3-b][1,4]oxazin-3-one], the IC50 came out at 0.03 nM.

Take `CC(C)(C)Cc1nnc(-c2ccc(C3CN(C(=O)N4CC[C@@H]5OCC(=O)N[C@@H]5C4)C3)cc2)o1` [Example 38, (4aR,8aS)-6-[3-[4-[5-(2,2-Dimethylpropyl)-1,3,4-oxadiazol-2-yl]phenyl]azetidine-1-carbonyl]-4,4a,5,7,8,8a-hexahydropyrido[4,3-b][1,4]oxazin-3-one]: the IC50 was 8.5 nM. For `Cc1ncccc1Oc1ccc(C2CN(C(=O)N3CC[C@@H]4OCC(=O)N[C@@H]4C3)C2)cc1` [Example 4, (4aR,8aS)-6-[3-[4-[(2-Methyl-3-pyridyl)oxy]phenyl]azetidine-1-carbonyl]-4,4a,5,7,8,8a-hexahydropyrido[4,3-b][1,4]oxazin-3-one], the IC50 was found to be 2.5 nM.
